From patent US20130205438A1, “DOUBLING OF CHROMOSOMES IN HAPLOID EMBRYOS” (PIONEER HI BRED INTERNATIONAL INC, priority 2005, published 2013)
Marks after values point to notes of the source that are not given here.

Assays:
Type in all cases: in vivo
[1] = system: haploid embryos of maize plant "A"; assay: Chromosome doubling of isolated haploid immature maize embryos on colchicine medium (Example 2); conditions: 0.05% colchicine, 24 hours
Experimental: A diploid maize plant, “A”, was pollinated with a haploid inducer line containing GFP. Immature embryos were isolated at 12 days after pollination and the embryo size is ranged from 1.9-2.0 mm long. The diploid embryos, GFP expressing embryos, were discarded. The haploid embryos, based on the absence of the GFP marker expression, were cultured on a medium comprising MS salts, MS vitamins, thiamine, asparagine, BAP, sucrose, gelrite, and 0.05% colchicine with scutellum side up for 24 hours at 26 C in the dark. […] This medium comprised MS salts, MS vitamins, myo-inositol, sucrose, and gelrite. The plantlets germinated from these treated embryos, were transferred to a light culture room at 26 C for another 2 -3 weeks until healthy plantlets with good roots developed. These plantlets were transferred to soil and grown in a regular greenhouse to maturation. The plants were self-pollinated and the mature seeds will be harvested. The harvested seed from each plant will be grown as an ear-row and the plants will examined for uniformity of the plant morphology within each ear-row.

[2] = system: haploid embryos of maize lines "B" and "C"; assay: Chromosome doubling of isolated haploid immature maize embryos on pronamide medium (Example 3); conditions: 6 uM pronamide, 48 hours
Experimental: Two different diploid maize lines, “B” and “C” were pollinated with a haploid inducer line, containing homozygousGFP. Immature embryos were isolated at 11 days after pollination and embryo size ranged from 1.5-1.6 mm in length. The diploid embryos, embryos showing GFP expression, were discarded. The haploid embryos, embryos not expressing GFP, were cultured on a modified MS medium containing 6 uM pronamide with scutellum side up for 48 hours at 26 C in dark. Alter approximately 48 hours the embryos were transferred to a modified MS medium without any doubling agent. Embryos were placed with scutellum side down for 6-10 days at 26 C in the dark. The plantlets germinated torn these treated embryos were then moved into a light culture room at 28 C for another 3 weeks till healthy plantlets with good roots developed. These plantlets were then transferred to soil and grown in a regular greenhouse to maturation. The plants were self pollinated and the mature seeds will be harvested. The harvested seed will be planted as an ear-row. The plants within a row will be examined for uniformity of the plant morphology.

[3] = system: immature embryos of hybrid maize plants pollinated with maternal-haploid-inducing line; assay: Testing different hybrids and timing of doubling agent (Example 9)
Experimental: A maternal-haploid-inducing maize line was used to pollinate 4 different hybrid plants. The immature embryos derived from these crosses were isolated and placed directly on embryo rescue medium containing 5 uM pronamide. Embryos were kept on the pronamide medium for approximately 36 or 48 hours before being transferred to new media without the doubling agent.
The plantlets germinated from these treated embryos were then transferred into tubes until healthy plantlets with good roofs developed. These plantlets were then transferred to soil and grown in a regular greenhouse to maturation. The plants were self-pollinated and the mature seeds were harvested.

[4] = system: ears of hybrid maize plants pollinated by haploid inducer plants; assay: Immature ear treatment for haploid doubling, ear/stalk in liquid medium with Pronamide (Example 6); conditions: 5 uM Pronamide, 0.5% DMSO, one day
Excerpt: Hybrid maize plants were pollinated by haploid inducer plants. The ears with part of the stalks attached were harvested from the hybrid plants 4-6 days after pollination (embryo length less than 0.4 mm). The stalks were about 4-8 inches long on each side of where the ears were attached. The ears and the attached stalks are surface sterilized with 70% ethanol or 5% Chlorox. The lower ends of the stalks containing the ears were emerged into liquid medium containing MS medium, MS vitamins, sucrose, etc and 5 uM Pronamide, 0.5% DM SO for one day at 26 C. Then the ears still contained an the stalks were moved to a fresh medium containing MS medium, MS vitamins, sucrose etc. without doubling agent to allow the embryos and kernels to develop. The embryos within the ear can be isolated at any time after doubling. Embryo rescue can then be used to germinate immature embryos into plants. The germinated plants were grown to examine fertility.

[5] = Ear 1, ear/stalk harvest 6 days after pollination
[6] = Ear 2, ear/stalk harvest 6 days after pollination
[7] = Ear 3, ear/stalk harvest 5 days after pollination
[8] = Ear 4, ear/stalk harvest 4 days after pollination

## COc1cc2c(c(OC)c1OC)-c1ccc(OC)c(=O)cc1[C@@H](NC(C)=O)CC2 [colchicine, (S)-N-(5,6,7,9-tetrahydro-1,2,3,10-tetramethoxy-9-oxobenzo (a)heptalen-7-yl) acetamide]
[1]; Ear 1, 3 haploid embryos
  Fully Fertile Plants: 2
[1]; Ear 2, 7 haploid embryos
  Fully Fertile Plants: 4*
[1]; Ear 3, 9 haploid embryos
  Fully Fertile Plants: 8
[1]; Sum of 3 ears
  Fully Fertile Plants, percent of plantlets to greenhouse: (93.3%)
  Plantlets Germinated, percent of haploid embryos: (84.2%)
[1]; Sum of 3 ears, 19 haploid embryos
  Fully Fertile Plants: 14

## C#CC(C)(C)NC(=O)c1cc(Cl)cc(Cl)c1 [pronamide, 3,5-dichloro-N-(1,1-dimethyl-2-propynyl)benzamide]
[2]; Line B, 11 haploid embryos
  Fully Fertile Plant: 2*
[2]; Line C, 4 haploid embryos
  Fully Fertile Plant: 3
[2]; Sum of lines B and C
  Fully Fertile Plant, percent of plantlets to greenhouse: (83.3%)
  Plantlet Germinated, percent of haploid embryos: (53.3%)
[2]; Sum of lines B and C, 15 haploid embryos
  Fully Fertile Plant: 5
[3]; 5 uM Pronamide 36 hours, Hybrid 1, 11 days after pollination, 100 embryos excised, embryo size 2.5 mm
  # of Double Haploid Plants with Ears: 1
[3]; 5 uM Pronamide 36 hours, Hybrid 1, 12 days after pollination, 300 embryos excised, embryo size 2.5 mm
  # of Double Haploid Plants with Ears: 1
[3]; 5 uM Pronamide 36 hours, Hybrid 2, 11 days after pollination, 176 embryos excised, embryo size 2.5-3 mm
  # of Double Haploid Plants with Ears: 4
[3]; 5 uM Pronamide 36 hours, Hybrid 3, 12 days after pollination, 279 embryos excised, embryo size 2.5-3 mm
  # of Double Haploid Plants with Ears: 13
[3]; 5 uM Pronamide 36 hours, Hybrid 4, 12 days after pollination, 322 embryos excised, embryo size 2.5 mm
  # of Double Haploid Plants with Ears: 2
[3]; 5 uM Pronamide 48 hours, Hybrid 3, 10 days after pollination, 236 embryos excised, embryo size 2 mm
  # of Double Haploid Plants with Ears: 6
[3]; 5 uM Pronamide 48 hours, Hybrid 4, 10 days after pollination, 144 embryos excised, embryo size 2 mm
  # of Double Haploid Plants with Ears: 3
[3]; 5 uM pronamide 36 or 48 hours, sample of plants, 120 molecular markers
  Homozygosity of progeny of double haploid plants: confirmed for homozygosity
[4]; [5]
  % of plants with fertile tassel: 67%
  Number of plants with fertile tassel: 16
  Number of plants with sterile tassel: 8
[4]; [6]
  % of plants with fertile tassel: 94%
  Number of plants with fertile tassel: 30
  Number of plants with sterile tassel: 2
[4]; [7]
  % of plants with fertile tassel: 70%
  Number of plants with fertile tassel: 14
  Number of plants with sterile tassel: 6
[4]; [8]
  % of plants with fertile tassel: 95%
  Number of plants with fertile tassel: 19
  Number of plants with sterile tassel: 1
[4]; Sum of 4 ears
  % of plants with fertile tassel: 82%
  Number of plants with fertile tassel: 79
  Number of plants with sterile tassel: 17
